Measured values published in publication PMC12187842, “A novel molecule targeting neutrophil-mediated B-1a cell trogocytosis attenuates sepsis-induced acute lung injury” (Frontiers in Immunology, 2025).

Experiments:
Assay type in all cases: in vivo, mouse
[1] = test system: CLP-induced sepsis in C57BL/6 mice; test: Lung histopathology (H&E) in CLP mice; conditions: C11 10 mg/kg i.p. once after CLP (Figure 5 legend: 10 μg/kg); 20 h; n = 5-7/group; vs. CLP vehicle
From the text: (§1) Mice were anesthetized with 2% isoflurane in oxygen, and sepsis was induced via cecal ligation and puncture (CLP) ([26]). A 1-cm midline abdominal incision was made to expose the cecum, which was ligated 1-cm proximal to its end using a 4-0 silk suture. The cecum then was perforated with a single through-and-through puncture using a 22-gauge needle, positioned midway between the ligation and the tip of the cecum. A small amount of fecal material was gently extruded from the perforation sites to confirm the patency of the punctures, and the cecum was subsequently returned to the peritoneal cavity. Following abdominal closure, resuscitation was provided via subcutaneous (s.c.) injection of 500 µL normal saline. Postoperative analgesia was administered with a single dose of 0.1 mg/kg buprenorphine. To evaluate the effects of the therapeutic peptide (named Compound 11 or C11) (synthesized by GenScript USA Inc., Piscataway, NJ) on sepsis, C57BL/6 mice were assigned to three experimental groups: the Sham group, the CLP group treated with vehicle, and the CLP group treated with C11 (10 mg/kg). C11 was dissolved in DMSO (10 mg/mL) and diluted with saline to a total volume of 500 µL. […]
Lung tissues were fixed in 10% formalin, embedded in paraffin, sectioned into 5-μm-thick slices, and stained with hematoxylin and eosin (H&E). […] Lung fields at ×400 magnification were scored and averaged for analyses.

[2] = test system: B-1a cells; test: B-1a cell numbers in pleural and peritoneal cavities of CLP mice by flow cytometry
From the text: as §1, with “buprenorphine.” for “buprenorphine. To evaluate the effects of the therapeutic peptide (named Compound 11 or C11) (synthesized by GenScript USA Inc., Piscataway, NJ) on sepsis, C57BL/6 mice were assigned to three experimental groups: the Sham group, the CLP group treated with vehicle, and the CLP group treated with C11 (10 mg/kg). C11 was dissolved in DMSO (10 mg/mL) and diluted with saline to a total volume of 500 µL.”
B-1a cell and neutrophil populations were analyzed by flow cytometry ([9], [11], [28]). […] After that, B-1a cells (CD45^+CD19^+B220^lo/-CD5^+CD23^-) ([6], [28]), and neutrophils (CD45^+Ly6G^+) were detected by flow cytometry. Fc block (Cat. No. 156604, BioLegend) was used to prevent nonspecific antibody binding and the cell viability was determined using a Zombie Aqua Fixable Viability Kit (BioLegend). […]

[3] = test system: neutrophil-mediated B-1a cell trogocytosis; test: Neutrophil-mediated B-1a cell trogocytosis by flow cytometry after C11 treatment in CLP mice; conditions: C11 10 mg/kg i.p. once immediately after CLP; cells isolated 4 h after CLP; CFSE-positive events within Ly6G-positive neutrophils; n = 5-6/group; p < 0.05 vs. C11 (-)
From the text: Mice were anesthetized with 2% isoflurane in oxygen, and sepsis was induced via cecal ligation and puncture (CLP) ([26]). A 1-cm midline abdominal incision was made to expose the cecum, which was ligated 1-cm proximal to its end using a 4-0 silk suture. The cecum then was perforated with a single through-and-through puncture using a 22-gauge needle, positioned midway between the ligation and the tip of the cecum. A small amount of fecal material was gently extruded from the perforation sites to confirm the patency of the punctures, and the cecum was subsequently returned to the peritoneal cavity. Following abdominal closure, resuscitation was provided via subcutaneous (s.c.) injection of 500 µL normal saline. […]
B-1a cells (target cells) were isolated, and dead cells were removed using the EasySep Dead Cell Removal Kit (Cat. No. 17899, STEMCELL Technologies). […] Trogocytosis was evaluated using confocal imaging (LSM900; Zeiss, Oberkochen, Germany) to visualize the interaction between neutrophils and B-1a cells. NucBlue Live ReadyProbes Reagent (Thermo Fisher Scientific) was used for nuclear staining. For quantitative analysis, trogocytosis was assessed by flow cytometry, where CFSE (Carboxyfluorescein succinimidyl ester)-positive events within Ly6G-positive neutrophil populations were quantified as indicators of trogocytosis. […]

## 126-ELKNRTVSWFS-136 [Compound C11]
[1]
  sepsis-induced lung injury (H&E histology, lung injury score 0 to 1): significantly mitigated
[2]; C11 10 mg/kg i.p. once immediately after CLP, 20 h after surgery, flow cytometry, n = 5-6/group, p < 0.05 vs. C11 (-)
  B-1a cell numbers in the pleural and peritoneal cavities: effectively preserved
[2]; discussion, blocking of Siglec-G/CD47 interaction by C11 in CLP mice
  restoration of B-1a cell numbers in sepsis: did not fully restore B-1a cell numbers
[3]
  neutrophil-mediated B-1a cell trogocytosis: significantly reduced
